In patent publication US4797472A, “New peptide derivatives” (KabiVitrum AB, priority 1986, dated 1989) one finds Km data, which are given here for three compounds.

In one assay the target is T1, Thrombin bovine (Bos taurus, UniProt P00735).
T1 construct: Thrombin bovine (KabiVitrum) with a constant concentration E0 =1.3 nmol/l; purchased KabiVitrum
Nature of the assay: Determination of thrombin sensitivity. Type of assay: biochemical. The settings on record: Thrombin bovine E0=1.3 nmol/l; substrate 0.1-0.4 mmol/l; trisbuffer pH 8.3, I=0.25, 37° C.

For another assay, the target named is T2, FXa human (Homo sapiens, UniProt P00742).
T2 construct: from tissue; host or cells: human plasma
T2 sequence (P00742 235-488 limits assumed): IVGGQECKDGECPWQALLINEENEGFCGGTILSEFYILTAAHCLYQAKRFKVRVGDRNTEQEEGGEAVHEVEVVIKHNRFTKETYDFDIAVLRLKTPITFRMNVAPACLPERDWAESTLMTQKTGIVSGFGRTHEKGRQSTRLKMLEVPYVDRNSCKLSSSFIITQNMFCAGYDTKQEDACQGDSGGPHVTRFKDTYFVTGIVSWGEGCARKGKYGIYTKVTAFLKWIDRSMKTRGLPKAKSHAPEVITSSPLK
T2 sequence (P00742 41-179 partner limits assumed): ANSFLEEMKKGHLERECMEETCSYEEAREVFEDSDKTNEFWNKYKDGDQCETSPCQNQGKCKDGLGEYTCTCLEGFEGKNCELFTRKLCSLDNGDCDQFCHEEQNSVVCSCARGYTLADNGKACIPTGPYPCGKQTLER
Briefly: Determination of kinetic constants for FXa human (plasma activated with RVV+CaCl2). In kind it is biochemical. Conditions: substrate 0.1-0.7 mmol/l, trisbuffer pH 7.0, I=0.25, polybrene, 37° C. The procedure: The kinetic data for the substrates are determined by measuring the initial velocity of hydrolysis (Vi) at different substrate concentrations (Si) and at constant enzyme concentrations (Eo). The binding constant (Km) and the maximum velocity (Vmax) are obtained in known manner from Lineweaver-Burk-plot, then the Kcat is calculated (Hemker H. C. loc. cit.)
The substrates in concentrations between 0.1-0.7 mmol/l (Si) are mixed with FXa human plasma and treated according to the method as described by Aurell; L., et al. (Perspectives in Hemostatis, Ed. Fareed J. et al, New York, Pergamon Press 1981, p. 382-388).
10 μl test plasma, control or standard and 200 μl trisbuffer solution (0.05 mol/l tris, pH 7.0, I=0.25 (NaCl)), polybrene (0.1 g/l) are mixed and incubated at 37° C. for 2-4 minutes. 200 μl substrate (37° C.) in concentrations between 0.1-0.7 mmol/l dissolved in trisbuffer solution prepared according to the above are added. The mixture is well stirred and within 30 seconds 200 μl RVV+CaCl2 (20°-25° C.) are added and the mixture is stirred. The absorbance change is measured at once in a spectrophotometer at 405 nm and 37° C.

Each structure is given as a SMILES string. Square brackets hold non-standard residues; d marks the D form. Peptide text beside a SMILES is read from it. * marks the point of attachment. pNA = O=[N+]([O-])c1ccc(N*)cc1; Ms = CS(=O)(=O)*

As to `N=C(N)NCCC[C@H](NC(=O)CNC(=O)[C@@H](CCCNC(=N)N)NS(=O)(=O)Cc1ccccc1)C(=O)Nc1ccc([N+](=O)[O-])cc1` [Example 16, N^α --Bzls--D--Arg--Gly--Arg--pNA.2HCl], the Km (commonly the concentration of substrate that gives half-maximal velocity) on Thrombin bovine was 160 µM; at FXa human it was 50 µM.

`COc1ccc(COC(=O)N[C@H](CCCNC(=N)N)C(=O)NCC(=O)N[C@@H](CCCNC(=N)N)C(=O)Nc2ccc([N+](=O)[O-])cc2)cc1` [Example 9, N^α --Moz--D--Arg--Gly--Arg--pNA.2HCl]: the values for the Km at Thrombin bovine and on FXa human were 73 µM and 210 µM, respectively.

`CC(C)C[C@@H](NS(C)(=O)=O)C(=O)NCC(=O)N[C@@H](CCCNC(=N)N)C(=O)Nc1ccc([N+](=O)[O-])cc1` [CBS 31.39, CH3 SO2 --D--Leu--Gly--Arg--pNA.AcOH] (Ms-[dL]-Gly-Arg-pNA): the Km at Thrombin bovine was found to be 230 µM; at FXa human, 1060 µM.
